Experimental findings from patent US7781644B2, “Arabidosis AtLEJ1 gene involved in inhibiting biosynthesis of jasmonic acid and ethylene and method for producing male-sterile plant using the same” (Korea University Industry and Academy Cooperation Foundation, priority 2006, dated 2010) are described below.

In experiment [1] the test system is male-sterile AtLEJ1-overexpressed plant. Description: Restoration of male-sterile AtLEJ1-overexpressed plant to fertile phenotype by hormone treatment of flower bud cluster. The experiment is classed as in vivo, Arabidopsis. Here is the method:
First, a flower bud cluster of the AtLEJ1-overexpressed plant was treated with 500 μM jasmonic acid. For a negative control, non-treatment or water alone, was provided.
(§1) The flowers obtained day 2 after treatment with jasmonic acid were embedded in paraffin (Paraplast) and then stained with phloroglucinol for microscopic observation.

For experiment [2], the system named is endothecium cells of stamens of the AtLEJ1-overexpressed plant. Description: Phloroglucinol staining of paraffin sections for lignification of endothecium cells of stamens after hormone treatment. It is filed as in vivo, Arabidopsis.
From the text: In order to examine the developmental process of anthers at the cell level, flowers of the wild-type and the AtLEJ1-overexpressed plant were dipped in a fixing solution, dehydrated with a series of ethanol solutions, and embedded in paraffin (Paraplast), followed by microtome section at 8 μm. The sections were stained with 2% phloroglucinol to visualize the lignification of the endothecium cells, known to play an important role in anther dehiscence, and were washed with 9N HCl.
as §1

The structures appear in SMILES notation.

In the case of `NC1(C(=O)O)CC1` [ACC, 1-aminocyclopropane-1-carboxylic acid], the “restoration to a fertile phenotype” value in experiment [1] (treatment with 50 mM ACC (FIG. 12)) and in experiment [1] (treatment with 500 mM ACC (FIG. 12)) was “restored to a fertile phenotype” in each case. Moreover, the “lignification of endothecium cells of stamens” value in experiment [2] (ACC-treated plant, 50 mM or 500 mM (FIG. 13)) is “Lignification was also found”.

Turning to `CC/C=C\C[C@H]1C(=O)CC[C@@H]1CC(=O)O` [jasmonic acid], the “restoration to a fertile phenotype” value in experiment [1] (500 μM jasmonic acid on flower bud cluster, one week after treatment, control remained sterile (FIG. 10)) is “at least partly, restored to a fertile phenotype”. In experiment [1] (500 μM jasmonic acid, day 2 after treatment), the “anther dehiscence (microscopic observation of treated flowers)” value is “observed to enter anther dehiscence”. For the same molecule, the “lignification of endothecium cells of stamens (phloroglucinol staining)” value in experiment [2] (500 μM jasmonic acid, flowers obtained day 2 after treatment (FIG. 11)) was “lignified”.
